Test results taken from patent publication US7696207B2, “Therapeutic agents useful for treating pain” (Purdue Pharma L.P., priority 2002, dated 2010).

Experiments:
human VR1 [1] = biological target: T1, human VR1 (Homo sapiens, UniProt Q8NER1); test: VR1 pH-based assay (FLIPR calcium influx); type: cell-based; conditions: HEK293-EcR cells induced to express human VR1; activation by agonist buffer pH 5.5; Fluo-4, FLIPR
T1 construct: expressed in transfected cells
Experimental: (§1) Human VR1 cloning. Human spinal cord RNA (commercially available from Clontech, Palo Alto, Calif.) was used. Reverse transcription was conducted on 1.0 μg total RNA using Thermoscript Reverse Transcriptase (commercially available from Invitrogen, Carlsbad, Calif.) and oligo dT primers as detailed in its product description. Reverse transcription reactions were incubated at 55° C. for 1 h, heat-inactivated at 85° C. for 5 min, and RNase H-treated at 37° C. for 20 min.
(§2) Human VR1 cDNA sequence was obtained by comparison of the human genomic sequence, prior to annotation, to the published rat sequence. Intron sequences were removed and flanking exonic sequences were joined to generate the hypothetical human cDNA. Primers flanking the coding region of human VR1 were designed as follows: forward primer, […] (SEO ID NO: 1); and reverse primer, […] (SEO ID NO: 2). […]
(§3) Generation of inducible cell lines. […] On the day of assay, cells were loaded with Fluo-4 (a calcium-sensitive dye that is commercially available from Molecular Probes, Eugene, Oreg.) and CAP-mediated calcium influx was measured using a Fluorometric Imaging Plate Reader (“FLIPR”) (commercially available from Molecular Devices Corp., Sunnyvale, Calif.) as described below. […]

human VR1 [2] = biological target: T1, human VR1; test: VR1 capsaicin-based assay (FLIPR calcium influx); type: cell-based; conditions: HEK293-EcR cells induced to express human VR1; activation by capsaicin (400 nM); Fluo-4, FLIPR
Experimental: as §1, §2, §3

T1 sequence (Q8NER1 whole entry): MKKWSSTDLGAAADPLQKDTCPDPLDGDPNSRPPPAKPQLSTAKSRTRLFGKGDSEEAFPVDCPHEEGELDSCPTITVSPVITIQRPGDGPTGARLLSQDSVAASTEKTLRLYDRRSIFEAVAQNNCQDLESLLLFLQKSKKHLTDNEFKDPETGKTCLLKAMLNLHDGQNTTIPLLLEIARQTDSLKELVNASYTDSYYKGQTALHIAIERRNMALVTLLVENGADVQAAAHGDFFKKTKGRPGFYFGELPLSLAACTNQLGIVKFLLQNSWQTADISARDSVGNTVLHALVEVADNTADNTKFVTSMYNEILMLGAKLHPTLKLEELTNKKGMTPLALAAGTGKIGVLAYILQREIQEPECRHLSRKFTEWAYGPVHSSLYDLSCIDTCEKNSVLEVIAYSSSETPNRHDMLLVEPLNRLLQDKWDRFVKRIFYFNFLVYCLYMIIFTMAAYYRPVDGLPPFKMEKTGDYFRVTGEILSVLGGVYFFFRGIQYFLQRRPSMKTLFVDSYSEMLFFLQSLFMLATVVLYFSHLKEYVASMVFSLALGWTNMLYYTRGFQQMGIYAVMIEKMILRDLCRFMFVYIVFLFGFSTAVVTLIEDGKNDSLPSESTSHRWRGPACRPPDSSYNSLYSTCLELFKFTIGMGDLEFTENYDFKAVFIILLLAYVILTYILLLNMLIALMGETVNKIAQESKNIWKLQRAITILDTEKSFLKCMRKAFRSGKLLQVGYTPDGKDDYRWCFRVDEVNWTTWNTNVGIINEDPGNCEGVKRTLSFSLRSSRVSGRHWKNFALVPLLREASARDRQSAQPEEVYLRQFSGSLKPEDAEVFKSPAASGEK

## Cc1ccnnc1N1CCN(C(=O)Nc2ccc(C(C)(C)C)cc2)CC1 [Compound A17, 4-(4-Methyl-pyridazin-3-yl)-piperazine-1-carboxylic acid (4-tert-butyl-phenyl)-amide]
Human VR1 [1]
  IC50: 221 ± 50.5 nM
Human VR1 [2]
  IC50: 47.2 ± 9.9 nM
